Experiments:
[1] = system: C. albicans strain 10261 (4277); assay: Gastrointestinal colonization of neonatal mice by C. albicans, prophylactic synthetic tetramannosides; type: in vivo, mouse; settings: for effect on gastrointestinal colonization by C. albicans (in words) / reduction in intestinal colonization (in words): mice; for effect on gastrointestinal colonization by C. albicans (in words): administration prior to inoculation, versus control; for reduction in intestinal colonization (in words): dose of 150 μg by gavage prior to inoculation; for degree of gastrointestinal colonization, median of CFUs: young mice, CFU/dropping 7 days after the inoculation
Method: The mothers and their litters (10 to 15 baby mice/litter) were received on the 4th day of life (line CD-1® (Crl: CD-1® (ICR) BR, Charles River, Saint Aubin les Elbeuf, France). The animals were inoculated on the 6th day of life. There was always a separation from the mother for 3 hours prior to gavage and a one hour interval after inoculation.
Two strains of C. albicans were used, strain 4276 which expresses a small amount of β-1,2 oligomannosides at its surface and strain 4277 which expresses a large amount. Prior to each use, the strains were re-inoculated on Sabouraud-chloramphenicol (SC) agar from a culture stored at −80° C. in PBS-40% glycerol. After incubation for 24 hours at 35° C., the yeasts were washed 3 time in sterile physiological water (NaCl 0.9%, water φ) and the suspension was adjusted to 2×10^9/ml. The viability of the inoculum was verified for each experiment by sowing suitable dilutions of the yeast suspensions on SC agar in Petri dishes.
[…] The sugars were diluted in sterile water to obtain the desired concentration (see results) in a volume of 50 μl. Two independent experiments were carried out. In the first, 4 litters infected with strain 4277 were compared after administration, respectively, of water (litter 1), of 50 μg pf αMan (litter 2), 150 μg of βMan (litter 3) or 150 μg of 0αMan (litter 4). In the second experiment, four litters were infected either with strain 4276 (litters 1 and 2) or with strain 4277 (litters 3 and 4) after treatment with water (litters 1 and 3) or 50 μg of bMan (litters 2 and 4).
• Mortality: the cages were monitored once daily and the number of mice was recorded. • Gastrointestinal colonization: sequentially, beginning on day 7 after the inoculation, one dropping was collected from each mouse, ground in 100 μl of sterile water with a small piston adapted to function in 1.5-ml Eppendorf tubes and the total volume was inoculated on SC agar in a Petri dish. The number of colony forming units (CFU) was counted after 24 hours of incubation at 30° C. When the CFU density prevented counting, a score was attributed on the basis of the appearance of the culture so as to allow statistical comparisons: 2 or 1000 CFU, 3 or 10,000 CFU, 4 or 100,000 CFU. 7) Statistical Analysis
The gastrointestinal colonizations according to the infecting strain and according to the treatment preceding the inoculation were compared using a nonparametric test (Mann-Whitney or Kruskall-Wallis test, depending on the number of groups) using the program Statview 4.5 for Macintosh. The percentages of positive cultures or deaths on day 1 were compared with the Fisher exact test.

C. albicans (SA-40) = assay: Experimental model of vaginal candidiasis in the rat, inhibition of colonization; type: in vivo; settings: for inhibition of colonization/infection (in words): administration 1 h, α control even at the maximum dose; for inhibition of colonization/infection (in words) / level of colonization (colony-forming units in vaginal secretions): 24 h and 48 h after inoculation; for level of colonization (colony-forming units in vaginal secretions): rat
Method: Ovarectomized female rats were maintained in pseudo-estrus by subcutaneous injection of 0.5 mg of estradiol benzoate every 2 days during the duration of the experiments. The animals were inoculated with 0.1 ml of a 10^7 yeast solution. The kinetics of the infection were monitored by determining the number of yeasts present in the vaginal secretions. 1 μl of secretion was collected with a calibrated plastic loop and spread over a dish of Sabouraud's agar plus antibiotics; the colony-forming units were counted after 48 hours of incubation at 28° C. […] 1: the β-1,2 mannotetraose (100 μg) was administered 1 hour before inoculation. 2: 1 hour after inoculation. 3: 1 h, 24 h and 48 h after inoculation. We used a model of vaginal candidiasis recognized by the international community and with which the most pertinent animal experiments to date have been performed. The results obtained in two experimental series were in perfect agreement. […] Even at the maximum dose, the α-1,2 oligomannosides administered in the same manner as control has no effect as shown in Table 3 below.

Factor 34 = assay: ELISA antigenic reactivity with antigenic factor 34; type: binding, rabbit; settings: FIG. 8
Method: Monospecific polyclonal antibodies from Iatron were prepared by immunization of rabbits with whole yeasts then adsorbed by yeasts of heterologous species. Used as a battery, they enable identification by agglutination of the principal species of Candida implicated in human pathology. Each of these “factors” reacts with specific epitopes which were identified by any entire series of immunochemical studies performed in Japan. The results of these studies were summarized in the publication by S. Suzuki (Suzuki, S. et al., 1997, Curr. Top. Med. Mycol. 8: 57–70).
According to the immunochemical studies performed on the Iatron serums, this structure should react with Factor 34 (Suzuki, S. et al., 1997, Curr. Top. Med. 8: 57–70).

[2] = system: antibodies of pool of serum from patients with Crohn's disease; assay: ELISA reactivity of pool of patient serums (ASCA test) with plates sensitized with synthetic antigen; type: binding; settings: FIG. 9, pool of patient serums used to standardize the ASCA test
Description: It has been shown that one of the major epitopes against which was directed the ASCA response of patients with Crohn's diseases was a mannotetraose of formula Man α-1,3 Man α-1,2 Man α-1,2 Man (Sendid, B. et al., 1996, Clin. Diagn. Lab. Immunol. 3: 219–26; Young, M. et al., 1998, Glycoconj. J. 15: 815–22).

[3] = strain 10261, 150 μg by gavage prior to inoculation

Row | Compound | effect on gastrointestinal colonization by C. albicans (in words) [1] | reduction in intestinal colonization (in words) [1] | degree of gastrointestinal colonization, median of CFUs [1, 3] [CFU] | inhibition of colonization/infection (in words) (C. albicans (SA-40); rat vaginal candidiasis) | level of colonization (colony-forming units in vaginal secretions) (C. albicans (SA-40); SA-40, 50 γ 1 h, day 0) | level of colonization (colony-forming units in vaginal secretions) (C. albicans (SA-40); SA-40, 50 γ 1 h, day 1) | level of colonization (colony-forming units in vaginal secretions) (C. albicans (SA-40); SA-40, 50 γ 1 h, day 2) | level of colonization (colony-forming units in vaginal secretions) (C. albicans (SA-40); SA-40, 50 γ 1 h, day 5) | level of colonization (colony-forming units in vaginal secretions) (C. albicans (SA-40); SA-40, 50 γ 1 h, day 7) | level of colonization (colony-forming units in vaginal secretions) (C. albicans (SA-40); SA-40, 50 γ 1 h, day 14) | level of colonization (colony-forming units in vaginal secretions) (C. albicans (SA-40); SA-40, 50 γ 1 h, day 21) | level of colonization (colony-forming units in vaginal secretions) (C. albicans (SA-40); SA-40, 100 γ 1 h, day 0) | level of colonization (colony-forming units in vaginal secretions) (C. albicans (SA-40); SA-40, 100 γ 1 h, day 1) | level of colonization (colony-forming units in vaginal secretions) (C. albicans (SA-40); SA-40, 100 γ 1 h, day 2) | level of colonization (colony-forming units in vaginal secretions) (C. albicans (SA-40); SA-40, 100 γ 1 h, day 5) | level of colonization (colony-forming units in vaginal secretions) (C. albicans (SA-40); SA-40, 100 γ 1 h, day 7) | level of colonization (colony-forming units in vaginal secretions) (C. albicans (SA-40); SA-40, 100 γ 1 h, day 14) | level of colonization (colony-forming units in vaginal secretions) (C. albicans (SA-40); SA-40, 100 γ 1 h, day 21) | also measured
1 | OC[C@H]1O[C@H](O[C@@H]2[C@@H](O[C@@H]3[C@@H](O[C@@H]4C(O)O[C@H](CO)[C@@H](O)[C@@H]4O)O[C@H](CO)[C@@H](O)[C@@H]3O)O[C@H](CO)[C@@H](O)[C@@H]2O)[C@@H](O)[C@@H](O)[C@@H]1O (stereo partly drawn) [αM A N, D-Man α(1-2) D-Man α(1-2) D-Man α(1-2) D-Man] | did not modify the degree of gastrointestinal colonization | not seen | 258 | no effect | >100 | >100 | 95 ± 2 | 86 ± 4 | 69 ± 6 | 48 ± 4 | 21 ± 4 | >100 | >100 | 93 ± 3 | 83 ± 5 | 71 ± 6 | 495 | 22.4 ± 3.4 | 
2 | OC[C@H]1O[C@@H](O[C@@H]2[C@H](O[C@@H]3[C@H](O[C@@H]4C(O)O[C@H](CO)[C@@H](O)[C@@H]4O)O[C@H](CO)[C@@H](O)[C@@H]3O)O[C@H](CO)[C@@H](O)[C@@H]2O)[C@@H](O)[C@@H](O)[C@@H]1O (stereo partly drawn) [βM 4, D-Man β(1-2) D-Man β(1-2) D-Man β(1-2) D-Man] | very protective | almost total reduction | 5 | reduced colonization by C. albicans in a very significant manner | >100 | >100 | 88 ± 6 | 62 ± 4 | 57 ± 3 | 23 ± 5 | <1 | >100 | 87 ± 6 | 83 ± 8 | 40 ± 6 | 54 ± 8 | 45 ± 14 | <1 | effect on gastrointestinal colonization by C. albicans (in words) ([1]; listed as synthetic β-1,2 tetramannosides): drastic, dose-dependent reduction in the number of yeasts found in the stools; effect on gastrointestinal colonization by C. albicans (in words) ([1]; listed as βMan): significantly decreased the degree of colonization; degree of gastrointestinal colonization, median of CFUs ([1]; strain 10261, 50 μg by gavage prior to inoculation): 48.5 CFU; inhibition of colonization/infection (in words) (C. albicans (SA-40); rat vaginal candidiasis, listed as synthetic β-1,2 oligomannosides): dose-dependent relation of inhibition of colonization/infection; carrier state of C. albicans (in words) (C. albicans (SA-40); rat vaginal candidiasis, at the end of the experiments): no longer be carriers of C. albicans; change of level of colonization (in words) (C. albicans (SA-40); rat vaginal candidiasis, beginning on the first day of administration): decreased by close to half; level of colonization (colony-forming units in vaginal secretions) (C. albicans (SA-40); SA-40, 150 γ 1 h, day 0): >100; level of colonization (colony-forming units in vaginal secretions) (C. albicans (SA-40); SA-40, 150 γ 1 h, day 1): 62 ± 7; level of colonization (colony-forming units in vaginal secretions) (C. albicans (SA-40); SA-40, 150 γ 1 h, day 2): 54 ± 0; level of colonization (colony-forming units in vaginal secretions) (C. albicans (SA-40); SA-40, 150 γ 1 h, day 5): 27 ± 3; level of colonization (colony-forming units in vaginal secretions) (C. albicans (SA-40); SA-40, 150 γ 1 h, day 7): 28 ± 4; level of colonization (colony-forming units in vaginal secretions) (C. albicans (SA-40); SA-40, 150 γ 1 h, day 14): 5.6 ± 3; level of colonization (colony-forming units in vaginal secretions) (C. albicans (SA-40); SA-40, 150 γ 1 h, day 21): <1
3 | 8-carboxyloctyl 2-O-(2-O-(3-O-α-D-mannopyranosyl)-α-D-mannopyranosyl)-α-D-mannopyranosyl)-α-D-mannopyranoside [III] |  |  |  |  |  |  |  |  |  |  |  |  |  |  |  |  |  |  | antigenic reactivity with Factor 34 (in words) (Factor 34): results observed correspond to the anticipated results; fixation of patient antibodies (in words) [2]: affix according to a reaction dependent on the dose of synthetic antigen

— US7109182B2, “Synthetic oligomannosides, preparation and uses thereof” (Centre Hospitalier Regional Universitaire (CHRU), priority 1999, dated 2006)
